Read-outs that look alike come from different tables or passages of the source.

Data set [1] in a line: pKa calculation with ChemAxon calculator and ΔpKa rule. The note with it: pKa (base) − pKa (acid); VPZ pKa = 9.4 versus calculated coformer pKa. An excerpt:
The combination with a value 0 ≤ ΔpKa ≤ 3 is much less predictable and falls within a “salt-cocrystal continuum” [38]. We applied this approach to the coformers selected based on virtual cocrystal screening to assess whether the combination would form a cocrystal or salt (Table 1).

The nature of data set [2]: Intrinsic dissolution rate (IDR) in phosphate buffer pH 6.8. The data set is classed as physicochemical. The note with it: for IDR in pH 6.8: phosphate buffer pH 6.8, 37 °C, 50 rpm, 13 mm pellet. The protocol: IDR was investigated using a Distek […] dissolution tester (Distek, North Brunswick, NJ, USA). […] Aliquots of 1.5 mL of the dissolution samples were collected at predetermined time intervals, filtered through 0.45 μm syringe filters, and analyzed for their VPZ concentration by HPLC. The VPZ concentration was measured using an HPLC system (UFLC; Shimadzu) with a diode array detector and Shim-pack GIS-ODS C18 column (4.6 × 250 mm, 5 μm). […] The volume of the injected samples was 10 μL and the VPZ content was assayed spectrophotometrically at a wavelength of 245 nm.

On the set-up of data set [3]: method as in PMID 28578848. Particulars: cited from earlier work.
The nature of data set [4]: Stability in aqueous solution: PXRD of solids remaining after 24 h slurry. The data set is classed as physicochemical. The note with it: pH 6.8 solution, slurry for 24 h. The protocol: The solubility and dissolution behavior of drugs in aqueous solvent are important physicochemical properties for good oral bioavailability. VPZ has pH-dependent solubility, which increases with decreasing pH. […] The aqueous solubility for cocrystals and salts of VPZ was measured in pH 1.2 and 6.8 buffer solutions at 37 °C. VPZ concentrations were determined in aliquots retrieved from the suspensions after 24 h by HPLC. One of the major challenges in investigations of solubility in multicomponent solid forms is the change in the solution composition due to precipitation of the components dissociated over the test period. In this study, the stability of the cocrystals in aqueous solution was checked by PXRD analysis of the solids remaining after solubility experiments. At pH 1.2, however, the amount recovered from the suspensions was too low to confirm their stability. […] Under both conditions, the solubility order was VPZ–RES > VPZ–CAT > VPZ–GAL.

Data set [5] in a line: Accelerated stability testing in the solid state. It counts as physicochemical.
Data set [6] can be described thus: Equilibrium solubility in pH 1.2 and pH 6.8 solutions, 37 °C, 24 h, HPLC. The note with it: for solubility thermodynamic at 24 h: 37 °C, VPZ concentration by HPLC. The data set is classed as physicochemical. The procedure:
Excess amounts (~500 mg) of powder samples were added to 10 mL of pH 1.2 solution and 30 mL of pH 6.8 solution. […] After 24 h, aliquots of 2.5 mL were withdrawn from the suspension using a 0.45 μm nylon syringe filter and diluted immediately, followed by analysis of the VPZ concentration by HPLC.
The VPZ concentration was measured using an HPLC system (UFLC; Shimadzu) with a diode array detector and Shim-pack GIS-ODS C18 column (4.6 × 250 mm, 5 μm). HPLC analysis was conducted at a column oven temperature of 40 °C with a flow rate of 1 mL/min, and the mobile phase was a mixture of 20 mM ammonium formate in water (pH 3.05) and HPLC-grade MeOH with the addition of 10 mM triethylamine (TEA) (80% : 20%, v/v). The volume of the injected samples was 10 μL and the VPZ content was assayed spectrophotometrically at a wavelength of 245 nm.

Turning to `Oc1cccc(O)c1O` [Pyrogallol], the ΔpKa in data set [1] is recorded as 0.3.

On to `O=C(O)c1ccc[nH]1` [Pyrrole-2-carboxylic acid], for which the ΔpKa in data set [1] was 5.78.

`NC(=O)C(=O)O` [Oxamic acid]: the ΔpKa in data set [1] was 6.92.

For the compound `NC(=O)CO` [Glycolamide], in data set [1], the ΔpKa is on record as −4.25.

As to `O=C1NS(=O)(=O)c2ccccc21` [saccharin], in data set [1], the ΔpKa was 7.46.

With `NC(N)=O` [Urea], the ΔpKa in data set [1] is recorded as −6.9.

Take `Oc1cccc(O)c1` [Resorcinol]: in data set [1], the ΔpKa was −0.17.

Consider `NC(=O)c1ccccc1` [Benzamide], for which the ΔpKa in data set [1] is given as −5.16.

As to `NC(=O)c1ccncc1` [Isonicotinamide], the ΔpKa in data set [1] is −4.31.

For `O=C(O)CCC(=O)O` [Succinic acid], the ΔpKa in data set [1] is 5.54.

For the compound `Cc1cc(O)ccc1O` [Methyl-hydroquinone], the ΔpKa in data set [1] is listed as −0.7.

Consider Vonoprazan–pyrogallol [VPZ-GAL], for which the “IDR in pH 6.8” value in data set [2] was determined as 0.69 mg/cm^2∙min.

On to `NC(=O)c1cccnc1` [Nicotinamide], for which the ΔpKa in data set [1] was −3.99.

Take `Oc1ccccc1O` [Pyrocatechol]: the ΔpKa in data set [1] was −0.24.

With `Oc1ccc(O)cc1` [Hydroquinone], the ΔpKa in data set [1] is on record as −0.58.

Consider `O=C(O)c1ccc(O)cc1` [4-hydroxybenzoic acid], for which the ΔpKa in data set [1] is on record as 5.02.

Consider `O=C1CC[C@@H](C(=O)O)N1` [Pyroglutamic acid], for which the ΔpKa in data set [1] is listed as 5.79.

As to `CNCc1cc(-c2ccccc2F)n(S(=O)(=O)c2cccnc2)c1.O=C(O)/C=C/C(=O)O` [VPZ-FUM, 1-[5-(2-Fluorophenyl)-1-(pyridin-3-ylsulfonyl)-1H-pyrrol-3-yl]-N-methylmethanamine monofumarate], in data set [3], the “reported solubility in water” value was below 1000 µg/mL. In data set [4], the “stability in aqueous solution (PXRD of undissolved residue)” value is on record as “different from those of the starting material”. In addition, the “time to reach peak concentration in IDR plot” value in data set [2] (pH 6.8 buffer) is on record as at most 60 min. In addition, the “IDR in pH 6.8” value in data set [2] was determined as 1.35 mg/cm^2∙min. The “stability in the solid state” value in data set [5] is “remained stable”. Moreover, the solubility at 24 h in data set [6] (Figure 7a, pH 1.2 buffer, read-out: Solubility in pH 1.2 buffer, Concentration) amounted to 27600 µg/mL; in data set [6] (Figure 7b, pH 6.8 buffer, read-out: Solubility in pH 6.8 buffer, Concentration), 3400 µg/mL. For the same compound, the solubility thermodynamic at 24 h came to 27710 ± 210 µg/mL in data set [6] (pH 1.2 solution, read-out: Equilibrium Solubility after 24 h in pH 1.2) and 3400 ± 450 µg/mL in data set [6] (pH 6.8 solution, read-out: Equilibrium Solubility after 24 h in pH 6.8).

Source of the values: article PMC8877905, “Novel Cocrystals of Vonoprazan: Machine Learning-Assisted Discovery” (Pharmaceutics, 2022).
